Measured values published in patent US20220144812A1, “QUINOLINE DERIVATIVES AND THEIR USE FOR THE TREATMENT OF CANCER” (Epizyme, Inc., priority 2019, published 2022).
Where two headings read alike, the source gives them in different places.

Assays:
[1] = system: H3K18Ac in HB-CLS-2 cells; assay: H3K18AC in-cell western (ICW) assay; type: cell-based; conditions: H3K18Ac in-cell western, read-out: CREBBP ICW IC50
From the text: The following example describes methods and materials relating to an H3K18AC in-cell western assay. IC50 values (micromolar (μM)) are summarized in Table 1, Table 2, and Table 3 under the column labeled: “CREBBP ICW IC50 (micromolar).”
MATERIALS: HB-CLS-2 cell line, DMEM: Ham's F12 medium (1:1 mixture), penicillin-streptomycin, heat inactivated fetal bovine serum, D-PBS, Odyssey blocking buffer, 800CW goat anti-rabbit IgG (H+L) antibody, Licor Odyssey CLx Infrared Scanner, H3K18Ac rabbit monoclonal antibody. DRAQS fluorescent probe solution (5 mM), and 100% methanol were commercially available. HB-CLS-2 adherent cells were maintained in complete growth medium (DMEM: Ham's F12 supplemented with 10% v/v heat inactivated fetal bovine serum) and cultured at 37° C. under 5% CO2.
METHOD: Cell Treatment, ICW for detection of H3K18Ac and DNA content. HB-CLS-2 cells were seeded in assay medium (DMEM: Ham's F12 supplemented with 10% v/v heat inactivated fetal bovine serum and 1% Penicillin/Streptomycin) at a concentration of 80,000 cells per mL in a Poly-D-Lysine coated 384-well culture plates at 50 μL per well. Plates were incubated at room temperature for 30 minutes and then incubated at 37° C., 5% CO2 for additional 16-24 hours. Compounds and DMSO normalization were then added directly to the plates using a D300 Digital Dispenser and returned to the incubator at 37° C., 5% CO2 for 2 hrs. After the incubation, the contents of the plates were discarded into the appropriate waste stream and blotted on laboratory tissue to remove residual liquid. 90 μL per well of 100% ice cold methanol was added to the plates and incubated at room temperature for 15 minutes. Then methanol was then discarded into the appropriate waste stream and the plates again blotted on laboratory tissue to remove residual liquid. Plates were transferred to a Biotek 405 plate washer and washed 3 times with 100 μL per well of wash buffer (1X PBS containing 0.1% Triton X-100 (v/v)). Next, 50 μL per well of Odyssey blocking buffer with 0.1% Tween 20 (v/v) was added to each plate and incubated for 1 hour at room temperature. Blocking buffer was removed and 20 μL of primary antibody were added (α-H3K18Ac diluted 1:800 in Odyssey buffer with 0.1% Tween 20 (v/v)) and plates were incubated overnight (16 hours) at 4° C. Plates were washed 5 times with 100 μL per well of wash buffer. Next 20 μL per well of secondary antibody was added (1:400 800CW goat anti-rabbit IgG (H+L) antibody, 1:2000 DRAQ5 in Odyssey buffer with 0.1% Tween 20 (v/v)) and incubated for 1 hour at room temperature. The plates were washed 3 times with 100 μL per well wash buffer then 3 times with 100 μL per well of water. Plates were allowed to dry at room temperature then imaged on the Licor Odyssey CLx machine which measured integrated intensity at 700 nm and 800 nm wavelengths. Both 700 and 800 channels were scanned.

[2] = molecular target: T1, CREBBP (1084-1701) (Homo sapiens, UniProt Q92793); assay: Biochemical assay for CREBBP (1084-1701), SAMDI; conditions: SAMDI, read-out: CREBBP Biochemistry IC50
T1 construct: measured in the following biochemical assay using CREBBP (1084-1701); purchased
From the text: The following example describes materials and methods relating to a biochemical assay for CREBBP (1084-1701). IC50 values (micromolar (μM)) are summarized in Table 1, Table 2, and Table 3 under the column labeled: “CREBBP Biochemistry IC50 (micromolar).”
MATERIALS: Reagents 1M Tris pH 8.0, Tween 20 10%, DTT, bovine serum gelatin (BSG) 2%, Peptide #233 (biotin-H3 11-25, K14R, K23R), Acetyl-CoA, CREBBP (1084-1701), formic acid (100%), and sodium bicarbonate were commercially available.
METHODS: The effect of compounds was measured in the following biochemical assay using CREBBP (1084-1701). Enzyme mix 30 μL per well was added using a Multi-drop to wells of prepared Compound Stock plate. The enzyme was incubated in the Compound Stock plate for 30 minutes at room temperature. Substrate mix, 20 μL per well, was added to Compound Stock plate using a Multi-drop. The plate was covered and incubate 30 minutes at room temperature. The reaction was stopped with addition of 5 μL per well of 5% formic acid using a Multi-drop. The plate was Incubated for 30 minutes at room temperature. The reaction mixture was neutralized with addition of 5 μL per well of 10% sodium bicarbonate using a Multi-drop. The plate was Incubated for 35 minutes at room temperature. The reaction mixture was Transferred 2.5 μL per well to a SAMDI biochip. The plate was Incubated for 60 minutes at room temperature. The samples were washed, dried, and matrix applied to SAMDI biochip. The SAMDI biochip was then read on the mass spectrometer.

T1 sequence (Q92793 1084-1701): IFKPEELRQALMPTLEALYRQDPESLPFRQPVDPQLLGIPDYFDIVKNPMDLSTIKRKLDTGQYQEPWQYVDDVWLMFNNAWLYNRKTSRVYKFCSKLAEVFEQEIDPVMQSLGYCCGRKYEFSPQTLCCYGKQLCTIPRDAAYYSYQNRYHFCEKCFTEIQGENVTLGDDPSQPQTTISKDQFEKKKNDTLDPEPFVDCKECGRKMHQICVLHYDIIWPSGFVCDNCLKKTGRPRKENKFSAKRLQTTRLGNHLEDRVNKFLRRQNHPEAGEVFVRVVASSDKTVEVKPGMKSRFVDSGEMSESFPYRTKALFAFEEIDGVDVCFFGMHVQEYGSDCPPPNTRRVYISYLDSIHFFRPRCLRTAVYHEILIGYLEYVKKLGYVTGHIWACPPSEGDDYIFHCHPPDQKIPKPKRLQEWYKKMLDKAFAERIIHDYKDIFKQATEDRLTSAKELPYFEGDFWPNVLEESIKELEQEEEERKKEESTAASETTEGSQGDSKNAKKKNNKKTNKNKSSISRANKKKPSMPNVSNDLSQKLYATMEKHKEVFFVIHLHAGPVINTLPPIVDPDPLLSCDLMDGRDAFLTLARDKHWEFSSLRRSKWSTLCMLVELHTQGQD

| Compound | IC50 [1] | IC50 [2] | IC50 ([1]; HB-CLS-2 cells) |
| --- | --- | --- | --- |
| CCn1ncc(CN(C)C(=O)c2cc(-c3ccccc3Cl)nc3ccc(Cl)cc23)c1C [Compound 95] | 1.8 µM | 0.25 µM |  |
| CCn1ncc(CN(C)C(=O)c2cc(-c3ccccc3Cl)nc3cc(Cl)c(Cl)cc23)c1C [Compound 97] | 1.9 µM | 0.47 µM |  |
| CCn1ncc(CN(C)C(=O)c2cc(-c3ccccc3OC)nc3ccc(Cl)cc23)c1C [Compound 98] | 2 µM | 0.4 µM |  |
| CCn1ncc(CN(C)C(=O)c2cc(-c3cccc(Cl)c3)nc3ccc(C)cc23)c1C [Compound 126] | 4.3 µM | 0.98 µM |  |
| CCn1ncc(CN(C)C(=O)c2cc(-c3ccccc3)nc3ccc(Cl)cc23)c1C [Compound 140] | 6.1 µM | 3.9 µM |  |
| CCn1ncc(CN(C)C(=O)c2cc(-c3ccccc3)nc3ccc(C)cc23)c1C [Compound 150] | 8.2 µM | 6.6 µM |  |
| CCn1ncc(CN(C)C(=O)c2nc(-c3cnn(C4CCNC4)c3)nc3ccc(Cl)cc23)c1C (centres unmarked) [Compound 206] |  | 192 µM | 20 µM |
| CCn1ncc(CN(C)C(=O)c2nc(-c3cnn(CCCO)c3)nc3ccc(Cl)cc23)c1C [Compound 212] |  | 96 µM | 20 µM |
| CCn1ncc(CN(C)C(=O)c2nc(-c3cnn(CCNC)c3)nc3ccc(Cl)cc23)c1C [Compound 213] |  | 135 µM | 20 µM |
| CCn1ncc(CN(C)C(=O)c2nc(Cc3ccccc3)nc3ccc(Cl)cc23)c1C [Compound 225] |  | 96 µM | 20 µM |
| CCc1onc(CN(C)C(=O)c2nc(-c3ccccc3Cl)nc3ccc(Cl)cc23)c1C [Compound 231] |  | 76 µM | 20 µM |
| CCn1ncc(CN(C)C(=O)c2nc(-c3ccc(OCCCN(C)C(=O)OC(C)(C)C)cc3)nc3ccc(Cl)cc23)c1C [Compound 242] |  | 57 µM | 20 µM |
| CCn1ncc(CN(C)C(=O)c2cc(-c3cn(CCCNC(=O)OC(C)(C)C)cn3)nc3ccc(Cl)cc23)c1C [Compound 243] |  | 99 µM | 20 µM |
| CCn1ncc(CN(C)C(=O)c2nc(-c3cnn(CCCNC)c3)nc3ccc(Cl)cc23)c1C [Compound 250] |  | 121 µM | 20 µM |
| CCn1ncc(CN(C)C(=O)c2nc(-c3cccc(Cl)c3Cl)nc3ccc(Cl)cc23)c1C [Compound 259] |  | 0.0026 µM | 0.18 µM |
| CCn1ncc(CN(C)C(=O)c2nc(-c3cccc(Cl)n3)nc3ccc(Cl)cc23)c1C [Compound 260] |  | 1.7 µM | 3.6 µM |
| CCn1ncc(CN(C)C(=O)c2nc(-c3ccccc3Cl)nc3ccc(COC)cc23)c1C [Compound 276] |  | 0.62 µM | 1.5 µM |
| Cc1c(CN(C)C(=O)c2nc(-c3ccccc3Cl)nc3ccc(Cl)cc23)cnn1C(C)C [Compound 279] |  | 0.082 µM | 0.76 µM |
| CCn1ncc(CN(C)C(=O)c2nc(-c3ccccc3Cl)nc3ccc(C#N)cc23)c1C [Compound 310] |  | 48 µM |  |
| CCn1ncc(CN(C)C(=O)c2cc(-c3cccc(Cl)c3)nc3ccc(N)cc23)c1C [Compound 311] |  | 18 µM |  |
| CCOc1ccc2nc(-c3cccc(Cl)c3)cc(C(=O)N(C)Cc3cnn(CC)c3C)c2c1 [Compound 319] |  | 120 µM |  |
| CCn1ncc(CN(C)C(=O)c2cc(-c3ccc[nH]3)nc3ccc(Cl)cc23)c1C [Compound 320] |  | 51 µM |  |
| CCn1ncc(CN(C)C(=O)c2cc(-c3ccccc3Cl)nc3cc(OC)ccc23)c1C [Compound 322] |  | 134 µM |  |
| CCn1ncc(CN(C)C(=O)c2cc(-c3cccnc3)nc3ccc(Cl)cc23)c1C [Compound 325] |  | 55 µM |  |
| CCn1ncc(CN(C)C(=O)c2cc(-c3ccccn3)nc3ccccc23)c1C [Compound 326] |  | 40 µM |  |
| CCn1ncc(CN(C)C(=O)c2nc(-c3ccccn3)nc3cc(Cl)ccc23)c1C [Compound 327] |  | 152 µM |  |
| CCc1ccc2nc(-c3cccc(Cl)c3)cc(C(=O)N(C)Cc3cnn(CC)c3C)c2c1 [Compound 328] |  | 0.29 µM |  |
| CCn1ncc(CN(C)C(=O)c2cc(-c3cccc(C#N)c3)nc3ccc(Cl)cc23)c1C [Compound 332] |  | 27 µM |  |
| CCn1ncc(CN(C)C(=O)c2nc(-c3cc(Cl)ccn3)nc3ccc(Cl)cc23)c1C [Compound 333] |  | 3.9 µM |  |

Now from value to molecule:

| IC50 [1] | IC50 [2] | IC50 ([1]; HB-CLS-2 cells) | Compound |
| --- | --- | --- | --- |
|  | 29 µM |  | CCn1ncc(CN(C)C(=O)c2nc(-c3cnn(C)c3)nc3ccc(Cl)cc23)c1C [Compound 339] |
|  | 40 µM |  | CCn1ncc(CN(C)C(=O)c2cc(-c3ccccc3Cl)nc3c(C)cccc23)c1C [Compound 340] |
|  | 12 µM |  | CCn1ncc(CN(C)C(=O)c2cc(-c3cncc(Cl)c3)nc3ccc(Cl)cc23)c1C [Compound 341] |
|  | 176 µM |  | CCn1ncc(CN(C)C(=O)c2cc(-c3ccccc3)nc3ccccc23)c1C [Compound 343] |
|  | 45 µM |  | CCn1ncc(CN(C)C(=O)c2nc(-c3ccccc3Cl)nc3cc(Cl)ccc23)c1C [Compound 344] |
|  | 72 µM |  | CCn1ncc(CN(C)C(=O)c2cc(-c3ncccc3OC)nc3ccc(Cl)cc23)c1C [Compound 345] |
|  | 21 µM |  | CCn1ncc(CN(C)C(=O)c2nc(-c3ncccc3OC)nc3ccc(Cl)cc23)c1C [Compound 348] |
|  | 32 µM |  | CCn1ncc(CN(C)C(=O)c2cc(-c3ccccc3OC)nc3ccccc23)c1C [Compound 351] |
|  | 41 µM |  | CCn1ncc(CN(C)C(=O)c2cc(-c3cccc(Cl)c3)nc3ccccc23)c1C [Compound 352] |
|  | 84 µM |  | CCn1ncc(CN(C)C(=O)c2cc(-c3cccc(C)c3)nc3ccccc23)c1C [Compound 353] |
|  | 38 µM |  | CCn1ncc(CN(C)C(=O)c2cc(-c3cccc(Cl)c3)nc3ccccc23)c1C [Compound 354] |
|  | 3.8 µM |  | CCn1ncc(CN(C)C(=O)c2nc(-c3ccc(OCCCN(C)C(=O)OC(C)(C)C)c(OC)c3)nc3ccc(Cl)cc23)c1C [Compound 355] |
|  | 34 µM |  | CCn1ncc(CN(C)C(=O)c2cc(-c3cccnc3)nc3ccc(Cl)cc23)c1C [Compound 364] |
|  | 14 µM |  | CCn1ncc(CN(C)C(=O)c2cc(-c3ccccc3Cl)nc3c(F)cccc23)c1C [Compound 365] |
|  | 72 µM |  | CN(Cc1cnn2c1CCC2)C(=O)c1cc(-c2cccc(Cl)c2)nc2ccc(Cl)cc12 [Compound 367] |
|  | 15 µM |  | CCn1ncc(CN(C)C(=O)c2cc(-c3cccc(Cl)c3)nc3ccc(F)cc23)c1C [Compound 368] |
|  | 0.67 µM |  | CCn1ncc(CN(C)C(=O)c2nc(-c3ccccc3Cl)nc3ccc(C)cc23)c1C [Compound 370] |
|  | 25 µM |  | CCn1ncc(CN(C)C(=O)c2cc(-c3ncccn3)nc3ccc(Cl)cc23)c1C [Compound 371] |
|  | 102 µM |  | CCc1ccc2c(C(=O)N(C)Cc3cnn(CC)c3C)cc(-c3ccccc3Cl)nc2c1 [Compound 375] |
|  | 32 µM |  | CCn1ncc(CN(C)C(=O)c2cc(-c3ccccc3Cl)nc3ccccc23)c1C [Compound 376] |
|  | 48 µM |  | CCn1ncc(CN(C)C(=O)c2cc(-c3ccccc3F)nc3ccccc23)c1C [Compound 378] |
